Test system: sheep PDCs
Experiment: ALP activity of predifferentiated chondrocytes cultured on CPP substrates

N[C@@H](Cc1cc(I)c(Oc2ccc(O)c(I)c2)c(I)c1)C(=O)O [T3, triiodothyronine]
ALP activity (3 nM T3, absence of dexamethasone, 1 week on CPP substrates): maximized
ALP activity level over 2 week culture (continuous 3 nM T3 treatment, maintained up to day 14): significantly increased by day 4
